Patent US9549921B2, “Heterocyclic compounds and methods of use thereof for the treatment of hepatitis C” (priority 2014, dated 2017)
pIC50: −log10 of the molar value. Where two headings read alike, the source gives them in different places.

Tests used:
[1] = test system: HCV replicon genotype 1a; assay: HCV replicon assay, genotype 1a (cell ELISA for NS3/4A); format: cell-based, hepatitis C virus
In short: (§1)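 Stable neomycin-resistant replicon cell lines (genotype 1a or 1b) incubated 96 h with compound dilution series without G418. After washing and lysis, replication measured by cell ELISA for replicon-encoded NS3/4A protein; IC50 as % of DMSO control via four-parameter fit.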

[2] = test system: HCV replicon genotype 1b; assay: HCV replicon assay, genotype 1b (cell ELISA for NS3/4A); format: cell-based, hepatitis C virus
In short: as §1

[3] = Hepatitis C virus, 96 h, read-out: 1a IC50 (nM), HCV genotype 1a replicon cells, 96 hours incubation, NS3/4A ELISA readout, % of DMSO control
[4] = Hepatitis C virus, 96 h, read-out: 1b IC50 (nM), HCV genotype 1b replicon cells, 96 hours incubation, NS3/4A ELISA readout, % of DMSO control

CCn1c(C(=O)N2CCC[C@H](c3cc4c(C(=O)NC)c(-c5ccc(F)cc5)oc4cc3N(C)S(C)(=O)=O)C2)cc2c(F)cccc21 [Example 34, (R)-5-(1-(1-ethyl-4-fluoro-1H-indole-2-carbonyl)piperidin-3-yl)-2-(4-fluorophenyl)-N-methyl-6-(N-methylmethylsulfonamido)benzofuran-3-carboxamide]
IC50 [1, 3]: 84.1 nM
IC50 [2, 4]: 65.3 nM

CNC(=O)c1c(-c2ccc(F)cc2)oc2cc(N(C)S(C)(=O)=O)c([C@@H]3CCCN(C(=O)c4nc5ncccc5[nH]4)C3)cc12 [Example 35, (S)-5-(1-(1H-imidazo[4,5-b]pyridine-2-carbonyl)piperidin-3-yl)-2-(4-fluorophenyl)-N-methyl-6-(N-methylmethylsulfonamido)benzofuran-3-carboxamide]
IC50 [1, 3]: 71.6 nM
IC50 [2, 4]: 48.9 nM

CNC(=O)c1c(-c2ccc(F)cc2)oc2cc(N(C)S(C)(=O)=O)c([C@H]3CCCN(C(=O)c4nc5ncccc5[nH]4)C3)cc12 [Example 36, (R)-5-(1-(1H-imidazo[4,5-b]pyridine-2-carbonyl)piperidin-3-yl)-2-(4-fluorophenyl)-N-methyl-6-(N-methylmethylsulfonamido)benzofuran-3-carboxamide]
IC50 [1, 3]: 269 nM
IC50 [2, 4]: 286 nM

CNC(=O)c1c(-c2ccc(F)cc2)oc2cc(N(C)S(C)(=O)=O)c([C@@H]3CCCN(C(=O)c4[nH]c5c(F)cccc5c4C)C3)cc12 [Example 37, (S)-5-(1-(7-fluoro-3-methyl-1H-indole-2-carbonyl)piperidin-3-yl)-2-(4-fluorophenyl)-N-methyl-6-(N-methylmethylsulfonamido)benzofuran-3-carboxamide]
IC50 [1, 3]: 162 nM
IC50 [2, 4]: 92.8 nM

CNC(=O)c1c(-c2ccc(F)cc2)oc2cc(N(C)S(C)(=O)=O)c([C@H]3CCCN(C(=O)c4[nH]c5c(F)cccc5c4C)C3)cc12 [Example 38, (R)-5-(1-(7-fluoro-3-methyl-1H-indole-2-carbonyl)piperidin-3-yl)-2-(4-fluorophenyl)-N-methyl-6-(N-methylmethylsulfonamido)benzofuran-3-carboxamide]
IC50 [1, 3]: 277 nM
IC50 [2, 4]: 116 nM

CNC(=O)c1c(-c2ccc(F)cc2)oc2cc(N(C)S(C)(=O)=O)c([C@@H]3CCCN(C(=O)c4cc5cccc(C(F)(F)F)c5[nH]4)C3)cc12 [Example 39, (S)-2-(4-fluorophenyl)-N-methyl-6-(N-methylmethylsulfonamido)-5-(1-(7-(trifluoromethyl)-1H-indole-2-carbonyl)piperidin-3-yl)benzofuran-3-carboxamide]
IC50 [1, 3]: 268 nM
IC50 [2, 4]: 36.4 nM

CNC(=O)c1c(-c2ccc(F)cc2)oc2cc(N(C)S(C)(=O)=O)c([C@H]3CCCN(C(=O)c4cc5cccc(C(F)(F)F)c5[nH]4)C3)cc12 [Example 40, (R)-2-(4-fluorophenyl)-N-methyl-6-(N-methylmethylsulfonamido)-5-(1-(7-(trifluoromethyl)-1H-indole-2-carbonyl)piperidin-3-yl)benzofuran-3-carboxamide]
IC50 [1, 3]: 142 nM
IC50 [2, 4]: 27.6 nM

CNC(=O)c1c(-c2ccc(F)cc2)oc2cc(N(C)S(C)(=O)=O)c(C3CCCN(c4nc5cc(F)ccc5o4)C3)cc12 (centres unmarked) [Example 51]
pIC50 ([1]; HCV genotype 1a replicon cells, 96 hours incubation, NS3/4A ELISA readout, % of DMSO control; read-out: 1a IC50): 8.30
pIC50 ([2]; HCV genotype 1b replicon cells, 96 hours incubation, NS3/4A ELISA readout, % of DMSO control; read-out: 1b IC50): 8.15

CNC(=O)c1c(-c2ccc(F)cc2)oc2cc(N(C)S(C)(=O)=O)c([C@@H]3CCCN(C(=O)C4CC4c4ccccn4)C3)cc12 (some centres unmarked) [Example 60, 2-(4-fluorophenyl)-N-methyl-6-[methyl(methylsulfonyl)amino]-5-{1-[(2-pyridin-2-ylcyclopropyl)carbonyl]piperidin-3-yl}-1-benzofuran-3-carboxamide]
pIC50 ([1]; read-out: 1a IC50; HCV genotype 1a replicon cells, 96 hours incubation, NS3/4A ELISA readout, % of DMSO control): 6.94
pIC50 ([2]; read-out: 1b IC50; HCV genotype 1b replicon cells, 96 hours incubation, NS3/4A ELISA readout, % of DMSO control): 7.39

CNC(=O)c1c(-c2ccc(F)cc2)oc2cc(N(C)S(C)(=O)=O)c([C@@H]3CCCN(C(=O)c4oc5ccc(F)cc5c4C)C3)cc12 [Example 62, 5-{1-[(5-fluoro-3-methyl-1-benzofuran-2-yl)carbonyl]piperidin-3-yl}-2-(4-fluorophenyl)-N-methyl-6-[methyl(methylsulfonyl)amino]-1-benzofuran-3-carboxamide]
IC50 [1, 3]: 192 nM
IC50 [2, 4]: 41.2 nM

CNC(=O)c1c(-c2ccc(F)cc2)oc2cc(N(C)S(C)(=O)=O)c([C@@H]3CCCN(C(=O)C=C(C)C)C3)cc12 [Example 63, 2-(4-fluorophenyl)-N-methyl-5-[1-(3-methylbut-2-enoyl)piperidin-3-yl]-6-[methyl(methylsulfonyl)amino]-1-benzofuran-3-carboxamide]
IC50 [1, 3]: 156 nM
IC50 [2, 4]: 68.1 nM

CNC(=O)c1c(-c2ccc(F)cc2)oc2cc(N(C)S(C)(=O)=O)c([C@@H]3CCCN(C(=O)c4cc5c(OC)cccc5[nH]4)C3)cc12 [Example 64, 2-(4-fluorophenyl)-5-{1-[(4-methoxy-1H-indol-2-yl)carbonyl]piperidin-3-yl}-N-methyl-6-[methyl(methylsulfonyl)amino]-1-benzofuran-3-carboxamide]
IC50 [1, 3]: 135 nM
IC50 [2, 4]: 40.7 nM

CNC(=O)c1c(-c2ccc(F)cc2)oc2cc(N(C)S(C)(=O)=O)c([C@@H]3CCCN(C(=O)c4cc5ncccc5[nH]4)C3)cc12 [Example 65, 2-(4-fluorophenyl)-N-methyl-6-[methyl(methylsulfonyl)amino]-5-[1-(1H-pyrrolo[3,2-b]pyridin-2-ylcarbonyl)piperidin-3-yl]-1-benzofuran-3-carboxamide]
IC50 [1, 3]: 140 nM
IC50 [2, 4]: 46.3 nM

CNC(=O)c1c(-c2ccc(F)cc2)oc2cc(N(C)S(C)(=O)=O)c([C@@H]3CCCN(C(=O)c4cc5ccccc5n4C)C3)cc12 [Example 67, 2-(4-fluorophenyl)-N-methyl-5-{1-[(1-methyl-1H-indol-2-yl)carbonyl]piperidin-3-yl}-6-[methyl(methylsulfonyl)amino]-1-benzofuran-3-carboxamide]
IC50 [1, 3]: 156 nM
IC50 [2, 4]: 87.4 nM

CNC(=O)c1c(-c2ccc(F)cc2)oc2cc(N(C)S(C)(=O)=O)c([C@@H]3CCCN(C(=O)CC4CCCCC4)C3)cc12 [Example 68, 5-[1-(cyclohexylacetyl)piperidin-3-yl]-2-(4-fluorophenyl)-N-methyl-6-[methyl(methylsulfonyl)amino]-1-benzofuran-3-carboxamide]
IC50 [1, 3]: 98 nM
IC50 [2, 4]: 89 nM

CNC(=O)c1c(-c2ccc(F)cc2)oc2cc(N(C)S(C)(=O)=O)c([C@@H]3CCCN(C(=O)c4nc5ccccc5s4)C3)cc12 [Example 69, 5-[1-(1,3-benzothiazol-2-ylcarbonyl)piperidin-3-yl]-2-(4-fluorophenyl)-N-methyl-6-[methyl(methylsulfonyl)amino]-1-benzofuran-3-carboxamide]
IC50 [1, 3]: 74.4 nM
IC50 [2, 4]: 22.8 nM

CNC(=O)c1c(-c2ccc(F)cc2)oc2cc(N(C)S(C)(=O)=O)c([C@@H]3CCCN(C(=O)c4c[nH]cc4-c4ccc(F)cc4)C3)cc12 [Example 71, 2-(4-fluorophenyl)-5-(1-{[4-(4-fluorophenyl)-1H-pyrrol-3-yl]carbonyl}piperidin-3-yl)-N-methyl-6-[methyl(methylsulfonyl)amino]-1-benzofuran-3-carboxamide]
IC50 [1, 3]: 168 nM
IC50 [2, 4]: 95.4 nM

CNC(=O)c1c(-c2ccc(F)cc2)oc2cc(N(C)S(C)(=O)=O)c([C@@H]3CCCN(C(=O)c4coc(-c5ccc(F)cc5)n4)C3)cc12 [Example 72, 2-(4-fluorophenyl)-5-(1-{[2-(4-fluorophenyl)-1,3-oxazol-4-yl]carbonyl}piperidin-3-yl)-N-methyl-6-[methyl(methylsulfonyl)amino]-1-benzofuran-3-carboxamide]
IC50 [1, 3]: 125 nM
IC50 [2, 4]: 23.6 nM

CNC(=O)c1c(-c2ccc(F)cc2)oc2cc(N(C)S(C)(=O)=O)c([C@@H]3CCCN(C(=O)c4cc(-c5ccc(F)cc5)n[nH]4)C3)cc12 [Example 73, 2-(4-fluorophenyl)-5-(1-{[3-(4-fluorophenyl)-1H-pyrazol-5-yl]carbonyl}piperidin-3-yl)-N-methyl-6-[methyl(methylsulfonyl)amino]-1-benzofuran-3-carboxamide]
IC50 [1, 3]: 50.5 nM
IC50 [2, 4]: 23.4 nM

CNC(=O)c1c(-c2ccc(F)cc2)oc2cc(N(C)S(C)(=O)=O)c([C@@H]3CCCN(C(=O)c4cc5sccc5n4C)C3)cc12 [Example 74, 2-(4-fluorophenyl)-N-methyl-6-[methyl(methylsulfonyl)amino]-5-{1-[(4-methyl-4H-thieno[3,2-b]pyrrol-5-yl)carbonyl]piperidin-3-yl}-1-benzofuran-3-carboxamide]
IC50 [1, 3]: 54.8 nM
IC50 [2, 4]: 43.4 nM

CNC(=O)c1c(-c2ccc(F)cc2)oc2cc(N(C)S(C)(=O)=O)c([C@@H]3CCCN(C(=O)c4nc5ccc(F)cc5s4)C3)cc12 [Example 75, 5-{1-[(6-fluoro-1,3-benzothiazol-2-yl)carbonyl]piperidin-3-yl}-2-(4-fluorophenyl)-N-methyl-6-[methyl(methylsulfonyl)amino]-1-benzofuran-3-carboxamide]
IC50 [1, 3]: 72.3 nM
IC50 [2, 4]: 12 nM

CNC(=O)c1c(-c2ccc(F)cc2)oc2cc(N(C)S(C)(=O)=O)c([C@@H]3CCCN(C(=O)c4nc5ccc(F)cc5[nH]4)C3)cc12 [Example 76, 5-{1-[(6-fluoro-1H-benzimidazol-2-yl)carbonyl]piperidin-3-yl}-2-(4-fluorophenyl)-N-methyl-6-[methyl(methylsulfonyl)amino]-1-benzofuran-3-carboxamide]
IC50 [1, 3]: 49.4 nM
IC50 [2, 4]: 9.96 nM
